In US8148112B2, “Sugar chain containing 4-position halogenated galactose and application thereof” (National University Corporation Hokkaido University, priority 2005, dated 2012):

T1: rat-derived α2,3-N-sialyltransferase (Rattus norvegicus, UniProt Q02734)
T1 construct: purchased Calbiochem
T1 sequence (Q02734 1-374): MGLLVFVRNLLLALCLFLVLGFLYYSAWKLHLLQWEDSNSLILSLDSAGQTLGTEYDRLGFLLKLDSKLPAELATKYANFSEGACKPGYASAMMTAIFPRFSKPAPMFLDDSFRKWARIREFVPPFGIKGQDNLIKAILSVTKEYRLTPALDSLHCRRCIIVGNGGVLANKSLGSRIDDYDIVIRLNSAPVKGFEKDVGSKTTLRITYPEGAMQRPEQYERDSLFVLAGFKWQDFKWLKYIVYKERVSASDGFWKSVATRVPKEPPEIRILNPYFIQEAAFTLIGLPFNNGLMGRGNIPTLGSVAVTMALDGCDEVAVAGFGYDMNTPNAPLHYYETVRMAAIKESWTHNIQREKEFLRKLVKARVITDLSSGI

T2: rat-derived α2,6-N-sialyltransferase (Rattus norvegicus, UniProt P13721)
T2 construct: purchased Calbiochem
T2 sequence (P13721 1-403): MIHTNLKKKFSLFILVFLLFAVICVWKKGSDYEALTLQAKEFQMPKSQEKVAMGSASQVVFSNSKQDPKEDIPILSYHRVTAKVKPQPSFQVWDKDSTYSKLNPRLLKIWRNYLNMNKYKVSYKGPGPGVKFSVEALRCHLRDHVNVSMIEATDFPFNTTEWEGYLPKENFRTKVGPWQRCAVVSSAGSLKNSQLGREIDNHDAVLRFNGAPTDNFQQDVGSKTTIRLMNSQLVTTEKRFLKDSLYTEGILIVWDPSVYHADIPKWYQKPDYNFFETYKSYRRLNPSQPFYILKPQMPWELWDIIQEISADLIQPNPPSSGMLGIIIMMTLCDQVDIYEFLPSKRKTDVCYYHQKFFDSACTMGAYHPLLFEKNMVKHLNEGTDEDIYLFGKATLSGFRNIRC

B1: GalK: E. coli-derived galactokinase, purified enzyme liquid (protein, UniProt P0A6T3 2-382, looked up)
Galactokinase: SLKEKTQSLFANAFGYPATHTIQAPGRVNLIGEHTDYNDGFVLPCAIDYQTVISCAPRDDRKVRVMAADYENQLDEFSLDAPIVAHENYQWANYVRGVVKHLQLRNNSFGGVDMVISGNVPQGAGLSSSASLEVAVGTVLQQLYHLPLDGAQIALNGQEAENQFVGCNCGIMDQLISALGKKDHALLIDCRSLGTKAVSMPKGVAVVIINSNFKRTLVGSEYNTRREQCETGARFFQQPALRDVTIEEFNAVAHELDPIVAKRVRHILTENARTVEAASALEQGDLKRMGELMAESHASMRDDFEITVPQIDTLVEIVKAVIGDKGGVRMTGGGFGGCIVALIPEELVPAVQQAVAEQYEAKTGIKETFYVCKPSQGAGQC
B2: rat-derived α2,6-N-sialyltransferase (Rattus norvegicus) (protein)
chain: T2 sequence (P13721 1-403)
B3: rat-derived α2,3-N-sialyltransferase (Rattus norvegicus) (protein)
chain: T1 sequence (Q02734 1-374)

How the values were obtained:
[1] = molecular target: T1, rat-derived α2,3-N-sialyltransferase; test: Kinetic analysis of α2,3-sialyltransfer reaction to 4MU-4F-LacNAc; format: biochemical; details: for Activity: α2,3-sialyltransferase
Procedure: (§1) The mixture was allowed to react at 25° C.
Precisely 60 minutes after initiation of the reaction, the reaction was terminated through addition of 80% acetonitrile (4 times in volume) and vigorous stirring. The reaction mixture was diluted, and the diluted product was analyzed through HPLC. […] Note that “1U” was defined as an enzyme amount which realizes sialylated sugar to form in an amount of 1 μmol/min under the above conditions.
The mixture was allowed to react at 25° C. for eight minutes.

[2] = molecular target: T2, rat-derived α2,6-N-sialyltransferase; test: Kinetic analysis of α2,6-sialyltransfer reaction to 4MU-4F-LacNAc; format: biochemical; details: for Activity: α2,6-sialyltransferase
Procedure: as §1
Precisely 120 minutes after initiation of the reaction, the reaction was terminated through addition of 1M NaOH (⅕ times in volume). The reaction mixture was neutralized and diluted with an HPLC eluent, and the diluted product was analyzed through HPLC. […] Note that “1U” was defined as an enzyme amount which realizes formation of sialylated sugar in an amount of 1 μmol/min under the above conditions.
The mixture was allowed to react at 25° C. for 10 minutes.
The enzymatic activity values at respective concentrations are compared.

[3] = molecular target: T1, rat-derived α2,3-N-sialyltransferase; test: Enzymatic α2,3-sialyltransfer reaction to pyridylaminated (PA) 4F-galactosylchitobiose, HPLC percent conversion; format: biochemical; details: 10 μM acceptor, 100 μM CMP-NeuAc, 100 mU/mL enzyme, 25° C.; percent conversion compared with PA galactosylchitobiose
Procedure: (§2) To a 10 mM HEPES-NaOH buffer (pH 7.5) containing 10 mM manganese chloride, 100 mM sodium chloride, 100 μM CMP-NeuAc, 0.02% (w/v) BSA, and 10 μM pyridylaminated (PA) 4F-galactosylated chitobiose, rat-derived α2,3-N-sialyltransferase (product of Calbiochem) (100 mU/mL-reaction mixture) was added, and the mixture was allowed to react at 25° C. In a similar manner, a similar mixture employing pyridylaminated (PA) galactosylated chitobiose as an acceptor was allowed to react as a control reaction.
An aliquot was sampled from the reaction mixture at hour 2.5 and hour 24 after initiation of the reaction. Finally, the reaction was terminated through addition of 10 mM sodium phosphate (pH 4.3) (9 times in volume) and vigorous stirring. The product was analyzed through HPLC employing a C30-UG-5 column. […] A fraction corresponding to each peak was collected and dried under reduced pressure. […] Mass analysis detected, in the reaction employing pyridylaminated (PA) 4F-galactosylchitobiose, an [M+H]^+ peak (m/z 959.45), thereby confirming formation of compound 17. Also, in the reaction employing pyridylaminated (PA) galactosyl chitobiose, an [M+H]^+ peak (m/z 957.31) was detected, thereby confirming formation of compound 18. […]

[4] = molecular target: T2, rat-derived α2,6-N-sialyltransferase; test: Enzymatic α2,6-sialyltransfer reaction to pyridylaminated (PA) 4F-galactosylchitobiose, HPLC percent conversion; format: biochemical; details: 10 μM acceptor, 100 μM CMP-NeuAc, 40 mU/mL enzyme, 25° C.; percent conversion compared with PA galactosylchitobiose
Procedure: as §2, with “α2,6-N-sialyltransferase” for “α2,3-N-sialyltransferase”, “(40” for “(100”
An aliquot was sampled from the reaction mixture at hour 1, hour 2.5, hour 8, and hour 24 after initiation of the reaction. Finally, the reaction was terminated through addition of a mixture of 0.5M triethylamine-acetic acid (pH 7.3) and acetonitrile (25:75) (19 times in volume) and vigorous stirring. The product was analyzed through HPLC. […] Mass analysis detected an [M+H]^+ peak (m/z 659.74) attributed to compound 19, thereby confirming formation of compound 19. Also, in the control reaction employing UDP-Gal, an [M+H]^+ peak (m/z 657.74) attributed to compound 20 was detected through MALDI-TOF-MS, confirming formation of compound 20. […]

[5] = Galactokinase (GalK) activity of the enzyme liquid; format: biochemical, E. coli; details: galactokinase activity of purified enzyme liquid, method by Takeda et al.
Procedure: E. coli (JM109 strain) (from Takara Bio) was transformed with a pTrc-galK plasmid (JP-A-2002-335988) in which a gene encoding E. coli-derived GalK has been inserted. The transformed cells were inoculated to a 2×YT medium (100 mL) containing 100 μg/mL ampicillin, followed by shake culturing at 37° C. When the number of the cells reached 1×10^8 cells/mL, isopropyl-p-thiogalactoside (IPTG) was added to the culture so as to adjust the final concentration to 0.2 mM, and shake culture was continued for further eight hours. After completion of culturing, cells were collected through centrifugation (9,000×g, 20 min) and suspended in a buffer (20 mM Tris-HCl (pH 7.5) and 1 mM magnesium chloride) (10 mL). The cells were disrupted through ultrasonication, and the product was centrifuged (20,000×g, 10 min), to thereby remove cell residues.
The thus-produced fraction was employed as an enzyme liquid in the following synthesis reactions. The galactokinase (GalK) activity of the enzyme liquid was determined (Table 1). In the present invention, GalK activity was determined through a method by Takeda et al. (JP-A-2002-335988).

[6] = substrate: CC(=O)NC1C(O)[C@H](O[C@@H]2OC(CO)[C@H](O)[C@H](O)C2O)[C@H](CO)O[C@H]1Oc1ccc2c(C)cc(=O)oc2c1; test: purified protein, by the assay type; details: 25° C., pH 7.5
[7] = substrate: CC(=O)NC1C(O)[C@H](O[C@@H]2OC(CO)[C@H](F)[C@H](O)C2O)[C@H](CO)O[C@H]1Oc1ccc2c(C)cc(=O)oc2c1; test: purified protein, by the assay type; details: other: 1/[S]-1/v plotting, 200 μM CMP-NeuAc, 25° C., pH 7.5
[8] = other: rat-derived α2,6-sialyltransferase 40 mU/mL, 10 minutes, 1/[S]-1/v plotting
[9] = other: 1/[S]-1/v plotting, 200 μM CMP-NeuAc

| Molecule | Activity ([1]; acceptor concentration 20 μM) [mU/mL] | Activity ([1]; acceptor concentration 40 μM) [mU/mL] | Activity ([1]; acceptor concentration 80 μM) [mU/mL] | Activity ([1]; acceptor concentration 150 μM) [mU/mL] | Activity ([2]; acceptor concentration 20 μM) [mU/mL] | Activity ([2]; acceptor concentration 40 μM) [mU/mL] | Activity ([2]; acceptor concentration 80 μM) [mU/mL] | Activity ([2]; acceptor concentration 120 μM) [mU/mL] | Activity ([2]; acceptor concentration 150 μM) [mU/mL] | also measured |
| --- | --- | --- | --- | --- | --- | --- | --- | --- | --- | --- |
| CC(=O)NC1C(O)[C@H](O[C@@H]2OC(CO)[C@H](O)[C@H](O)C2O)[C@H](CO)O[C@H]1Oc1ccc2c(C)cc(=O)oc2c1 (some centres unmarked) [4MU-LacNAc, reference compound] | 16.20 | 28.50 | 45.36 | 66.23 | 0.8800 | 1.667 | 2.504 | 3.734 | 4.828 | – |
| CC(=O)NC(CNc1ccccn1)[C@H](O)C(O[C@@H]1OC(CO)[C@@H](O[C@@H]2OC(CO)[C@H](F)[C@H](O)C2O)[C@H](O)C1NC(C)=O)C(O)CO (some centres unmarked) [pyridylaminated (PA) 4F-galactosylchitobiose] | – | – | – | – | – | – | – | – | – | reactivity of α2,3-sialyltransferase [3]: considerably decrease; reactivity of α2,6-sialyltransferase [4]: considerably decrease |
| CC(=O)NC1C(O)[C@H](O[C@@H]2OC(CO)[C@H](F)[C@H](O)C2O)[C@H](CO)O[C@H]1Oc1ccc2c(C)cc(=O)oc2c1 (some centres unmarked) [4MU-4F-LacNAc, 4-methylumbelliferyl 4F—N-acetyllactosamine] | 0.9972 | 1.756 | 3.214 | 4.541 | 0.07743 | 0.1561 | 0.3223 | 0.4596 | 0.6348 | catalytic efficiency of α2,3-sialyltransferase relative to that with respect to 4MU-LacNAc ([1]; compared with 4MU-LacNAc): ≤ 6%; sialyltransferase activity of α2,6-sialyltransferase with respect to acceptor ([2]; compared with 4MU-LacNAc at respective concentrations): clearly decreased |
| B1 | – | – | – | – | – | – | – | – | – | Enzymatic activity [5]: 23.1 units/mg protein |
| B2 | – | – | – | – | – | – | – | – | – | Km [6, 8]: 217 µM; Vmax [6, 8]: 65.24 nmol/min/mg |
| B3 | – | – | – | – | – | – | – | – | – | Km [6, 9]: 129 µM; Vmax [6, 9]: 146.9 nmol/min/mg; Km [7]: 188 µM; Vmax [7]: 12.60 nmol/min/mg |
